No end group written: not given here.
Columns and labels:
[1] = system: HCMV strain AD169; test: HCMV plaque formation assay in MRC-5 cells; details: for inhibition of HCMV plaque formation as compared to the virus control: 10 micrograms per ml, 7-10 days
[2] = system: LPS-induced TNF-alpha production in human macrophages; test: TNF alpha production assay (ELISA); format: cell-based; details: 10 micrograms per ml; LPS 200 ng/ml; overnight
Protocol: Human Peripheral Blood Mononuclear Cells (PBMC) were obtained from normal human donors. The macrophages were prepared by adherence of PBMC to the plastic wells of the plates. […] Not stimulated macrophages served as negative background control. After overnight incubation, supernatants from the control and LPS-stimulated cultures were harvested and assayed for TNF alpha production employing a TNF alpha specific ELISA.

[3] = system: spleen cells of Ovalbumin-immunized Balb/c mice; test: Th1/Th2 cytokine profiling assay; format: cell-based, mouse; details: 10 micrograms per ml; Ovalbumin restimulation 10 micrograms/ml; 72 hours
Protocol: The Balb/c mice (originated in 1923, it is a popular strain and is used in many different research disciplines. […] On day 50, spleens of the mice were harvested (3 weeks after last boost with Ovalbumin). […] Thereafter, additional Ovalbumin was added to the cells at 10 micrograms/ml for in vitro restimulation of the cells. 72 hours later, cell supernatants were harvested and assayed using the Becton Dickinson Mouse […] Cytokine CBA Kit. This kit can be used to measure Interleukin-2 (IL-2), Interleukin-4 (IL-4), Interleukin-5 (IL-5), Interferon-γ (IFN-γ), and Tumor Necrosis Factor-α (TNF-α) protein levels in a single sample. The kit performance has been optimized for analysis of physiologically relevant concentrations (pg/ml levels) of specific cytokine proteins in tissue culture supernatants and serum samples.

[4] = system: hepatitis B virus (HBV) ayw strain; test: HBV assay in HepG2-2.2.15 cells (secreted HBV DNA by TaqMan PCR); format: cell-based; details: 10 micrograms per ml; six days; HBV DNA in supernatant
Text: HepG2-2.2.15 is a stable cell line containing the hepatitis B virus (HBV) ayw strain genome (ATCC Cat. No. CRL-11997). Antiviral compounds blocking any late step of viral replication such as transcription, translation, pregenome encapsidation, reverse transcription, particle assembly and release can be identified and characterized using this cell line. In this assay, an active compound will reduce the production of secreted HBV from cells, measured by utilizing real time quantitative PCR (TaqMan) assay to directly and accurately measure HBV DNA copies.
HepG2-2.2.15 cells were plated in 96-well microtiter plates. After 16-24 hours the confluent monolayer of HepG2-2.2.15 cells was washed and the medium was replaced with complete medium containing test peptides—10 micrograms per ml—in duplicate. […] Six days following the initial administration of the peptides, the cell culture supernatants was collected, treated with pronase and DNAse and then used in a real-time quantitative TaqMan PCR assay. The PCR-amplified HBV DNA was detected in real-time by monitoring increases in fluorescence signals that result from the exonucleolytic degradation of a quenched fluorescence probe molecule that hybridizes to the amplified HBV DNA. […] Antiviral activity was calculated from the reduction in HBV DNA levels (% virus control). […]

| Compound | antiviral activity of positive control compound (HCMV) ([1]; positive control) | induction of the LPS-induced TNF-alpha production in human macrophages [2] | inhibition of HCMV plaque formation as compared to the virus control [1] | IFNγ spleen cells; TH1 response (% of control) [3] | IL-2 spleen cells (% of control) [3] | IL-4 spleen cells; TH2 response (% of control) [3] | IL-5 spleen cells; TH2 response (% of control) [3] | TNF-a spleen cells; TH1 response (% of control) [3] | inhibition of HBV replication as compared to the virus control infection [4] |
| --- | --- | --- | --- | --- | --- | --- | --- | --- | --- |
| Nc1nc(O)c2ncn(COC(CO)CO)c2n1 [Ganciclovir, reference compound] | expected levels of antiviral activity |  |  |  |  |  |  |  |  |
| Asp-Met-His-Asp-Phe-Phe-Val-Gly-Leu-Met-NH2 (DMHDFFVGLM-NH2) [Peptide 2] |  | 15.9% | did not inhibit | 126.8 % of control | 198.0 % of control | 103.5 % of control | 99.2 % of control | 151.0 % of control | 78.5% |
| Met-Pro-His-Ser-Phe-Ala-Asn-Leu-Pro-Leu-Arg-Phe-NH2 (MPHSFANLPLRF-NH2) [Peptide 1] |  | 21.7% | did not inhibit | 57.5 % of control | 239.7 % of control | 168.7 % of control | 99.2 % of control | 106.3 % of control | 77.8% |

From patent publication US20100210557A1, “USE OF RFRP, ALONE OR IN COMBINATION WITH NEUROKININ-B, AS A THERAPEUTIC AGENT” (priority 2007, published 2010)
